Data as given in patent publication US12673014B2, “Inhibitors of glycosphingolipid synthesis and methods of use” (priority 2018, dated 2026).

How the values were obtained:
Type in all cases: in vivo, mouse
[1] = test system: ApoE−/− mice fed a western diet; assay: Skin and hair phenotype (hair discoloration, hair loss, skin inflammation, wounds) in ApoE-/- mice fed western diet
Source text: Male, 11-week-old apolipoprotein E-deficient (ApoE−/−) mice were purchased from Jackson Labs (Bar Harbor, Maine), and fed a western diet from the age of 12 to 20 weeks. Next, they were divided into the following diet/treatment groups.
Measurement of skin discoloration: An oval shape was drawn on the photographs taken from mice at the age of 36 weeks. This oval space covered the back area of mice from the neck to the tail ([…]). Using the free drawing pen and measure/analyze tool, the white area was measured for each mouse. The ratio of white area to the total area was then calculated, and the standard deviations for all the animals in each cage (N=5) was calculated and plotted.
Measurement of wounds and wound healing: For mouse skin wound analysis, the number of visible wounds in placebo-vs. BPD-treated mice (N=5 in each group), were counted manually. Then, averages of the wounds for each group were determined, as were the ratios of wounds in BPD-vs placebo-treated mice. Those ratios were then converted to percentages, expressed as “% wound healing.”

[2] = test system: skin glycosphingolipids (ceramide, monohexosylceramide, lactosylceramide); assay: Skin glycosphingolipids by LC-ESI/MS/MS in ApoE-/- mice fed western diet
Source text: Sample preparation: Glycosphingolipid molecular species were extracted according to a modified Bligh and Dyer procedure^55 Briefly, about 50-mg of each tissue sample was homogenized with 10 volumes of HPLC water at room temperature, followed by addition of 30 volumes methanol solution containing ammonium formate and d18:1/C12:0 ceramide as an internal standard (Avanti Polar Lipids, Alabaster, Alabama). The mixture was vortexed (Vortex-Genie, Model G560, Scientific Industries, Bohemia, NY), and 40 volumes of chloroform added. The mixture was vortexed again and centrifuged (Eppendorf centrifuge #5424) at 1,000 g for 10 minutes. The chloroform (bottom layer) was separated and dried using a Savant™ SPD131 SpeedVac (Thermo Scientific, Pittsburgh, PA, USA). Dried extracts were resuspended in pure methanol and sealed and stored at −80° C. until analysis by LC-ESI/MS/MS, as described previously^30-40.

B1-4GalT-V = assay: GalT-V mass in skin tissue by ELISA, ApoE-/- mice fed western diet
Procedure: Measurement of B1-4GalT-V mass in skin tissue: Here, about 10-mg skin tissue was homogenized in RIPA buffer and centrifuged at 10,000 rpm. The mass of GalT-V was measured in the supernatant fraction using an ELISA assay. About 100-μg of each protein sample (in triplicate) was loaded in 96-well, medium-binding, clear flat bottom polystyrene ELISA plates (Immulux, Chantilly VA)-total volume adjusted to 100 μL with bicarbonate buffer (50 mM Na2CO3—NaHCO3). […] This antibody specifically recognizes human, mouse and rat tissue B4GalT-V. Moreover, this interaction can be inhibited by large volumes of the GalT-V peptide but not other proteins or scrambled peptide. After overnight incubation at 4 C, 200 μL of blocking buffer (1% bovine serum albumin/phosphate buffered saline) was added and incubation continued overnight. […] C., followed by incubation for 1-hr at 37 deg. C. with a horseradish peroxidase-conjugated IgG (Sigma) secondary antibody. Finally, 100-μL of TMB solution was added, and after 10 min incubation at 37° C., absorbance was measured at 450 nm.

[3] = test system: glucosylceramide synthase (UCGC); assay: q-RT-PCR mRNA mass in skin tissue; settings: placebo vs D-PDMP fed ApoE-/- mice (data not shown)
LacCer synthase (GalT-V) = assay: q-RT-PCR mRNA mass in skin tissue; settings: placebo vs D-PDMP fed ApoE-/- mice (data not shown)
Procedure: Analysis of gene expression by quantitative Real-Time PCR: A ~50-mg piece of skin tissue was homogenized from each mice and total RNA was isolated using TRIsol reagent according to the manufacturer's instructions (Invitrogen, Camarillo, CA). Two microgram of RNA were reverse transcribed with SuperScript II using random primers. The primer sequence for GalT-V were as follows:
The primers were synthesized by Integrated DNA Technologies (Coralville, USA). Real time PCR were performed using SYBR Green PCR Master Mix PCR Master Mix (applied Biosystems, Foster City, CA, USA) in an Applied Biosystems Step one Real time PCR system as described previously^52. Data were normalized to GAPDH mRNA levels. Expression suite software (Applied Biosystems) was used to analyze the data.

[4] = western diet, BPD 1-10 mpk, D-PDMP 10 mpk, 20-36 weeks

CCCCCCCCCC(=O)N[C@H](CN1CCOCC1)[C@H](O)c1ccccc1 [D-PDMP, D-threo-1-phenyl-2-decanoylamino-3-morpholino-1-propanol]
% wound healing ([1]; 10 mpk D-PDMP daily oral gavage, age 20-36 weeks, western diet): 83% | hair discoloration, hair loss, and skin inflammation ([1]; 10 mpk unbound D-PDMP with western diet, 20 to 36 weeks): also interfered with these pathologies | lactosylceramide d18:1/22:0 and d18:1/24:1 in skin ([2]; 1 mpk BPD or 10 mpk D-PDMP): restored to normal | levels of fatty acid molecular species of skin ceramide ([2]; 1 mpk BPD or 10 mpk D-PDMP, western diet lowered them ~3-fold): increased them to normal levels | d18:1/24:1 monohexosylceramide in skin ([2]; 1 mpk BPD vs 10 mpk D-PDMP, western diet lowered it ~3-fold): but not 10 mpk D-PDMP, completely restored | d18:1/26:1 ceramide in skin ([2]; 10 mpk D-PDMP): did not reverse the loss | lactosylceramide d18:1/16:0 in skin ([2]; 36 weeks, western diet raised it 3-fold): modestly decreased | 18:1/24:0 monohexosylceramide in skin ([2]; printed: 1 mpk D-PDMP as efficacious as 10 mpk BPD, western diet lowered it ~1.5-fold): reversed | glucosylceramide level in skin [2, 4]: also increased | total ceramide level in skin [2, 4]: also increased | total lactosylceramide level in skin ([2]; western diet, BPD or D-PDMP): decreased | mass of GalT-V in skin tissue (B1-4GalT-V): showed a decrease | mRNA mass of glucosylceramide synthase in skin [3]: No statistical difference | mRNA mass of LacCer synthase (GalT-V) in skin (LacCer synthase (GalT-V)): No statistical difference
